SMILES strings stand for the structures.

For experiment [1], the target named is T1, Neutrophil elastase (Homo sapiens, UniProt P08246).
T1 sequence (P08246 whole entry): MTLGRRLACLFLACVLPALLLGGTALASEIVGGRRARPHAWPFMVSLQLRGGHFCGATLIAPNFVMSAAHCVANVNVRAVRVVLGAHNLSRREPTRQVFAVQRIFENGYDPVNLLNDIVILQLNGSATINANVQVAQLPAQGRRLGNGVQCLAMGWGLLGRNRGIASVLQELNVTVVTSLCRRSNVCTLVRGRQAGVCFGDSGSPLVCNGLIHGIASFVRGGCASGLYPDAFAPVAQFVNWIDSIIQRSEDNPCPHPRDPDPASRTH
In words: Inhibitory concentration against Human Leukocyte Elastase from human sputum.

Experiment [2] has as its target T2, Neutrophil elastase (Homo sapiens) (UniProt P08246).
T2 sequence (whole entry): T1 sequence (P08246 whole entry)
In words: Percentage inhibition of HLE induced hemorrhage in the hamster lung at 3 hours. It is filed as functional. Further details: concentration or dose not given beside the values; call rule not given here. Conditions: concentration not given here.

For experiment [3], the species on record is Rattus norvegicus.
The target of experiment [4] is T2, Neutrophil elastase (Homo sapiens). In words: Percentage inhibition of HLE induced hemorrhage in the hamster lung at 18 hours. Format: functional, tissue-based. Conditions: concentration not given here.
The target is the same in experiment [5]. Briefly: Percentage inhibition of HLE induced hemorrhage in the hamster lung at 24 hours. Particulars: concentration not given here. Format: functional, tissue-based.
The target is the same in experiment [6]. In words: Percentage inhibition of HLE induced hemorrhage in the hamster lung at 48 hours. It is filed as functional, tissue-based. Particulars: concentration not given here.
Experiment [7] has the same target. In words: Percentage inhibition of HLE induced hemorrhage in the hamster lung at 6 hours. It is filed as functional, tissue-based. Particulars: concentration not given here.
The species entered for experiment [8] is Rattus norvegicus. In words: Inhibitory concentration against ferric ascorbate-induced lipid peroxidation from rat liver microsomal preparation. Format: functional.
For experiment [9], the target named is Stromelysin-1 (Homo sapiens, UniProt P08254). In words: The concentration required to achieve 50% inhibition against Matrix metalloprotease-3.
Sequence of Stromelysin-1 (P08254 whole entry): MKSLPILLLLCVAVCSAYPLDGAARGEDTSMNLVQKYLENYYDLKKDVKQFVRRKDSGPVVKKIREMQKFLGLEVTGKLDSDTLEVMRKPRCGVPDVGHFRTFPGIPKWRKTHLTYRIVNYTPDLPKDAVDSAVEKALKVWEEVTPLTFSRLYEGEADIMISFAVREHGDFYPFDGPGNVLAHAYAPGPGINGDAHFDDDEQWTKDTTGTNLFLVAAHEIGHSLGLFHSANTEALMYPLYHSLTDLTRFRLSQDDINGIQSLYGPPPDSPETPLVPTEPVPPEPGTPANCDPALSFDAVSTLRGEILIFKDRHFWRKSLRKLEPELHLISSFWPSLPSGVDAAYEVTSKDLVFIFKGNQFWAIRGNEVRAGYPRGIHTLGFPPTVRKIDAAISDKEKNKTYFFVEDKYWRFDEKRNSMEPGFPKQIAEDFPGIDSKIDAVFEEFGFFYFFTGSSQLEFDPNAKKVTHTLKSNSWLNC
In experiment [10] the target is 72 kDa type IV collagenase (Homo sapiens, UniProt P08253). Briefly: The concentration required to achieve 50% inhibition against Matrix metalloprotease-2.
Sequence of 72 kDa type IV collagenase (P08253 whole entry): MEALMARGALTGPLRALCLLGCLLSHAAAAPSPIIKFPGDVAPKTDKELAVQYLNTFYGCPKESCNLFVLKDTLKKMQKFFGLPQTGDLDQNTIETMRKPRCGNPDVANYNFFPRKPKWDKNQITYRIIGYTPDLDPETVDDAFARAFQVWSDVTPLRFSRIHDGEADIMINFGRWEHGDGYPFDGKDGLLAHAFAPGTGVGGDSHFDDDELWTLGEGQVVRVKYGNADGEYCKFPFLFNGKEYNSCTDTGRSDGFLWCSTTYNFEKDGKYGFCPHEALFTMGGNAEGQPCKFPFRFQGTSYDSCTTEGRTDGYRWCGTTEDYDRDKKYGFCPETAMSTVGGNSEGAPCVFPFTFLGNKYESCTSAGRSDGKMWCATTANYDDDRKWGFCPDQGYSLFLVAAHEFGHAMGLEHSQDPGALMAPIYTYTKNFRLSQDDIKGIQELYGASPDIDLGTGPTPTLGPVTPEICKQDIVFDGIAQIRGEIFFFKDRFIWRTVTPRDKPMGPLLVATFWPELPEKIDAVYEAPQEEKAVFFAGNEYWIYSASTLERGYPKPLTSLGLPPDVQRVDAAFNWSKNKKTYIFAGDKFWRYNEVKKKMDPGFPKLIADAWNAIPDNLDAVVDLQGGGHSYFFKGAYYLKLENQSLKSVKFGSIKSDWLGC
The target in experiment [11] is T3, Interstitial collagenase (Homo sapiens, UniProt P03956).
T3 sequence (P03956 whole entry): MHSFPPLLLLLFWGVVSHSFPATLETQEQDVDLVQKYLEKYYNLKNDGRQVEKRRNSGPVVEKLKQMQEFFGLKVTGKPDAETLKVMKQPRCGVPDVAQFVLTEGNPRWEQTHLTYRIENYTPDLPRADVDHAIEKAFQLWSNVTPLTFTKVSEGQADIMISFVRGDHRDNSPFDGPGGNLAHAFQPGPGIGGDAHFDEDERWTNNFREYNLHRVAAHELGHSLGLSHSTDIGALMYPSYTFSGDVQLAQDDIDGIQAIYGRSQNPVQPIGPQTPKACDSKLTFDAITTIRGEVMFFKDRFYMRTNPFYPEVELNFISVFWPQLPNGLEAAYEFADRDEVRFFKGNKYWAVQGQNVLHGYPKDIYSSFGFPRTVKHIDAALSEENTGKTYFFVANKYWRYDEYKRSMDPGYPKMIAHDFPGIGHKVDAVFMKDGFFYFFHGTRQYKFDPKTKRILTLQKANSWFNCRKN
In words: The concentration required to achieve 50% inhibition against Matrix metalloprotease-1.

For experiment [12], the target named is Matrix metalloproteinase-9 (Homo sapiens, UniProt P14780). Briefly: The concentration required to achieve 50% inhibition against Matrix metalloprotease-9.
Sequence of Matrix metalloproteinase-9 (P14780 whole entry): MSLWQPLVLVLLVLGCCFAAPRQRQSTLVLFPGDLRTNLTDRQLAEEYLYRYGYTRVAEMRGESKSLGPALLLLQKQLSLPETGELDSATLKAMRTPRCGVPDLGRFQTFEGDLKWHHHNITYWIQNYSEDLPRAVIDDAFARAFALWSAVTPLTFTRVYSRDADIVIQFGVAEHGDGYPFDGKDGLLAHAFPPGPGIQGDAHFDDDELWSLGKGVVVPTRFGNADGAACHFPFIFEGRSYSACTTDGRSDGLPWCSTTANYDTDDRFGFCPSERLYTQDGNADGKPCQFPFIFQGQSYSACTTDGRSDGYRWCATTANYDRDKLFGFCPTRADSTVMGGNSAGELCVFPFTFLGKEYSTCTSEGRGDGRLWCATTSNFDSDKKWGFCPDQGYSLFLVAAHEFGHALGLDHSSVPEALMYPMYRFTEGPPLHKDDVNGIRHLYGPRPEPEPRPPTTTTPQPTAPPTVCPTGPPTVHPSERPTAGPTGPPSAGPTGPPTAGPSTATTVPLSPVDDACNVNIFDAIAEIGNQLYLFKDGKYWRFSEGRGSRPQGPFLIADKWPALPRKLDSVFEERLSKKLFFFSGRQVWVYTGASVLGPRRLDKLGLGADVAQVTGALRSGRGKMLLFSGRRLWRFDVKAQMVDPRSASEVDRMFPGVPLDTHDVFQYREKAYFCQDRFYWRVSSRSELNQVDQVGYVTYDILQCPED
In experiment [13] the target is T4, Prolyl endopeptidase (Homo sapiens, UniProt P48147).
T4 sequence (P48147 whole entry): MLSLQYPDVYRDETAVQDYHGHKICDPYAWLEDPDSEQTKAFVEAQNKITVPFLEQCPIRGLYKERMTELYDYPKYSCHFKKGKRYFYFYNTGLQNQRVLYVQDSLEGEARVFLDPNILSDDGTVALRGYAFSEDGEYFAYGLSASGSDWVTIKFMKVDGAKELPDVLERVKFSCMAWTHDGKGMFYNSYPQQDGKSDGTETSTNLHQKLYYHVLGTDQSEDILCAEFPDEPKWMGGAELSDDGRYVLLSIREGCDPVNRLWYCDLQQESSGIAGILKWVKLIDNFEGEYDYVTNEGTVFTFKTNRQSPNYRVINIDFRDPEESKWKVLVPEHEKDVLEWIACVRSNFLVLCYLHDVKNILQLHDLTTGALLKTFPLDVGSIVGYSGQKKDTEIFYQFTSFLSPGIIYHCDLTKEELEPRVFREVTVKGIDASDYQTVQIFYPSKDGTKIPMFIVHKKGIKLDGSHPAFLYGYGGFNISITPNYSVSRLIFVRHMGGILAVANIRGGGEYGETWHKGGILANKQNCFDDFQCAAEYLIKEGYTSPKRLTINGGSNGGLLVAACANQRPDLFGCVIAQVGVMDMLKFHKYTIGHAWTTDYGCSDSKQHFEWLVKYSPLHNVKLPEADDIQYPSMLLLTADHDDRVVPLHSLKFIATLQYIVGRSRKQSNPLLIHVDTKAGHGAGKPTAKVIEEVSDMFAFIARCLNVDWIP
In words: The concentration required to achieve 50% inhibition against prolyl endopeptidase.

`CCOCOc1c(C(C)(C)C)cc(/C=C/C(=O)NS(=O)(=O)c2ccc(C(=O)NC(C(=O)N3[C@@H](C(=O)NC(C(=O)C(F)(F)F)C(C)C)C[C@H]4CCCC[C@H]43)C(C)C)cc2)cc1C(C)(C)C` (stereo not given in full): the IC50 in experiment [1] was 36 nM; in experiment [3], “Not Active”. This compound also returned an inhibition in experiment [2] of 19%.

With `CC(C)[C@H](NC(=O)OC(C)(C)C)C(=O)N1C2CCC(CC2)[C@@H]1C(=O)N[C@H](C(=O)C(F)(F)F)C(C)C`, the IC50 in [1] was 32 nM.

Take `CC(C)C(NC(=O)[C@@H]1CC2CCCCC2N1C(=O)[C@@H](CCCCNC(=O)Cc1cc(C(C)(C)C)c(O)c(C(C)(C)C)c1)NC(=O)c1ccc(C(=O)NS(=O)(=O)c2ccc(Cl)cc2)cc1)C(=O)C(F)(F)F` (stereo not given in full): the IC50 worked out at 70 nM in experiment [1] and 2500 nM in [8]. For the same compound, the inhibition in experiment [4] stood at 45%; in experiment [5], 14%; in experiment [2] it was 40%; in experiment [6] it was 0%; in experiment [7], 41%.

`CC(C)C(NC(=O)c1ccc(S(=O)(=O)NC(=O)c2cc(C(C)(C)C)c(OC(=O)c3cc(C(C)(C)C)c(O)c(C(C)(C)C)c3)c(C(C)(C)C)c2)cc1)C(=O)N1[C@@H](C(=O)NC(C(=O)C(F)(F)F)C(C)C)C[C@H]2CCCC[C@H]21` (stereo not given in full): the values for the IC50 in experiment [1] and in [3] were 46 nM and “Not Active”, respectively. This compound returned an inhibition in experiment [2] of 0%.

`CC(C)C(NC(=O)[C@@H]1CC2CCCCC2N1C(=O)[C@@H](CCCCNC(=O)CCCSc1cc(C(C)(C)C)c(O)c(C(C)(C)C)c1)NC(=O)c1ccc(C(=O)NS(=O)(=O)c2ccc(Cl)cc2)cc1)C(=O)C(F)(F)F` (stereo not given in full): the results for the IC50 in experiment [1] and in experiment [8] were 84 nM and 2500 nM, respectively. In addition, the inhibition in experiment [2] turned out to be 3%.

For `CC(C)C(NC(=O)c1ccc(S(=O)(=O)NC(=O)Cc2cc(C(C)(C)C)c(O)c(C(C)(C)C)c2)cc1)C(=O)N1[C@@H](C(=O)NC(C(=O)C(F)(F)F)C(C)C)C[C@H]2CCCC[C@H]21` (stereo not given in full), the IC50 amounted to 38 nM in experiment [1] and 5000 nM in [8]. For the same compound, the inhibition worked out at 26% in experiment [4], 3% in experiment [5], 66% in experiment [2] and 65% in [7].

Turning to `CC(C)C(NC(=O)c1ccc(C(=O)NS(=O)(=O)c2ccc(Cl)cc2)cc1)C(=O)N1C2CCC(CC2)[C@@H]1C(=O)NC(C(=O)C(F)(F)F)C(C)C` (stereo not given in full), the values for the IC50 in [1] and in [3] were 15 nM and “Not Active”, respectively.

`CC(C)C(NC(=O)c1ccc(S(=O)(=O)NC(=O)c2ccc(Cl)c(S(=O)(=O)NC(=O)CSc3cc(C(C)(C)C)c(O)c(C(C)(C)C)c3)c2)cc1)C(=O)N1[C@@H](C(=O)NC(C(=O)C(F)(F)F)C(C)C)C[C@H]2CCCC[C@H]21` (stereo not given in full): the IC50 amounted to 38000 nM in experiment [9]; 19000 nM in experiment [10]; 58000 nM in experiment [11]; 24000 nM in [12]; 2000 nM in [13].
